Our source for the IC50 and Ki values is ChEMBL document CHEMBL1909046, “DrugMatrix in vitro pharmacology data”.

The target of data set [1] is T1, Alpha-1D adrenergic receptor (Homo sapiens, UniProt P25100). Also: in other assays of this panel Not Active means under 50% inhibition at 10 µM.
T1 sequence (P25100 whole entry): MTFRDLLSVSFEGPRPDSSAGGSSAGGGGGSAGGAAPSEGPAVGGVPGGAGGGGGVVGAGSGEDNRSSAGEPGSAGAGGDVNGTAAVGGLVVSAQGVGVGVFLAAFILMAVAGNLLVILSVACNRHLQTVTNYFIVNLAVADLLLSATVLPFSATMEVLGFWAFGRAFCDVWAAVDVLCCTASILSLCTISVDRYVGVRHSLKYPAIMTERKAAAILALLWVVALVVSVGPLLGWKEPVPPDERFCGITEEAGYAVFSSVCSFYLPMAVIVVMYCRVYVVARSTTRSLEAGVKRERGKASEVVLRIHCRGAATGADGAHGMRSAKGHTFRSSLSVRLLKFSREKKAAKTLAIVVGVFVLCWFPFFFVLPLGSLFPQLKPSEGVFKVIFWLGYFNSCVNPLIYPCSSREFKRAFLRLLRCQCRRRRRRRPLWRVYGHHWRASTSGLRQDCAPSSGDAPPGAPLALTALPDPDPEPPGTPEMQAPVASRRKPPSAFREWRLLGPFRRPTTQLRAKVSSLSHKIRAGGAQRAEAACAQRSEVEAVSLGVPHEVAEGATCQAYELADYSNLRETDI
Format: cell membranes, HEK293, Membrane. The settings on record: hek293.

In the next data set the target is Cannabinoid receptor 1 (Homo sapiens, UniProt P21554). Format: cell membranes, Chem-1, Membrane. Particulars: chem-1. Also: in other assays of this panel Not Active means under 50% inhibition at 10 µM.
Chain of Cannabinoid receptor 1 (P21554 whole entry): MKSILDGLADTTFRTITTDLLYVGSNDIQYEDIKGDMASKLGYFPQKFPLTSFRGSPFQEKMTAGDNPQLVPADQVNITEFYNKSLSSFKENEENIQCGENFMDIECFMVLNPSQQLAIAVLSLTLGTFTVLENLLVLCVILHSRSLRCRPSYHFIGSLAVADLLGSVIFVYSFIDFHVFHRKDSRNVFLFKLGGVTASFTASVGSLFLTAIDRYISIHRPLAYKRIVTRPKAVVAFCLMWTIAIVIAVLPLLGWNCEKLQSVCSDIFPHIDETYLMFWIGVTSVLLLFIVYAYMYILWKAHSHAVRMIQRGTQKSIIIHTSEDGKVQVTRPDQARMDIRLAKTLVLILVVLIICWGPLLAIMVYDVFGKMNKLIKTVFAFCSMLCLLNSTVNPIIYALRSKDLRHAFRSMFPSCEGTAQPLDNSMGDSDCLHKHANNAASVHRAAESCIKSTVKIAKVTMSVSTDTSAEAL
For a further data set, the target named is T2, Cathepsin G (Homo sapiens, UniProt P08311).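 Also: inhibition of Cathepsin G enzyme activity, tested on an AMC-conjugated peptide substrate; in other assays of this panel Not Active means under 50% inhibition at 10 µM.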
T2 sequence (P08311 whole entry): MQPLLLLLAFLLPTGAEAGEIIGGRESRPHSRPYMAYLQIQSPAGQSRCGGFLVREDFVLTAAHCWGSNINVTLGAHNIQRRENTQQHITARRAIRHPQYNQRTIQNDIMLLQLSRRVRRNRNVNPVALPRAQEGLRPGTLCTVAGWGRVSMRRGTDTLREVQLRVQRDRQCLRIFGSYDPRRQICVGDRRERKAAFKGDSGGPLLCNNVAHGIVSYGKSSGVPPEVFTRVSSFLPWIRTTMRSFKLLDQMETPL
The data set is described as follows: biochemical. Format: tissue-based, Neutrophil. The settings on record: neutrophil.

Data set [2] concerns the target Mitogen-activated protein kinase 3 (Homo sapiens, UniProt P27361). The data set is described as follows: DRUGMATRIX: Protein Serine/Threonine Kinase, ERK1 enzyme inhibition (substrate: Myelin Basic Protein). Details: species or system Escherichia coli. Particulars: Not Active = under 50% inhibition at 10 µM.
In data set [3] the target is Tyrosine-protein kinase Fyn (Homo sapiens, UniProt P06241). The data set is described as follows: biochemical. Format: cell-based, Insect cells. The settings on record: insect cells.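 Also: enzymatic inhibition of Fyn kinase activity measured with Poly(Glu:Tyr) as the phosphorylation substrate; in other assays of this panel Not Active means under 50% inhibition at 10 µM.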
Chain of Tyrosine-protein kinase Fyn (P06241 whole entry): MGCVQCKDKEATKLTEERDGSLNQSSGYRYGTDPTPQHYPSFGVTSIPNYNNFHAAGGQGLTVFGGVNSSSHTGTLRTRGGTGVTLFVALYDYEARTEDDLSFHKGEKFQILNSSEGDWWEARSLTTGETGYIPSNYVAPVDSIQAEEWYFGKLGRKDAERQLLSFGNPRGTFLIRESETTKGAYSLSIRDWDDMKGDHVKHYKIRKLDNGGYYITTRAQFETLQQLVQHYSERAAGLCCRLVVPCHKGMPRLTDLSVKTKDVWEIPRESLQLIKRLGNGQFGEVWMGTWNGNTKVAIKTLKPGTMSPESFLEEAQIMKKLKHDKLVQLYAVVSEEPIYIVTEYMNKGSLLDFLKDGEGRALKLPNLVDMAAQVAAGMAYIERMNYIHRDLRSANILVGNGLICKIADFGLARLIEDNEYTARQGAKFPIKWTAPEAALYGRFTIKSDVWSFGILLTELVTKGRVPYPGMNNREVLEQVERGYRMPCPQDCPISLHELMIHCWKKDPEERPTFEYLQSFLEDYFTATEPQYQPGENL
For the next data set, the target named is T3, Cytochrome P450 1A2 (Homo sapiens, UniProt P05177). Also: in other assays of this panel Not Active means under 50% inhibition at 10 µM.
T3 sequence (P05177 whole entry): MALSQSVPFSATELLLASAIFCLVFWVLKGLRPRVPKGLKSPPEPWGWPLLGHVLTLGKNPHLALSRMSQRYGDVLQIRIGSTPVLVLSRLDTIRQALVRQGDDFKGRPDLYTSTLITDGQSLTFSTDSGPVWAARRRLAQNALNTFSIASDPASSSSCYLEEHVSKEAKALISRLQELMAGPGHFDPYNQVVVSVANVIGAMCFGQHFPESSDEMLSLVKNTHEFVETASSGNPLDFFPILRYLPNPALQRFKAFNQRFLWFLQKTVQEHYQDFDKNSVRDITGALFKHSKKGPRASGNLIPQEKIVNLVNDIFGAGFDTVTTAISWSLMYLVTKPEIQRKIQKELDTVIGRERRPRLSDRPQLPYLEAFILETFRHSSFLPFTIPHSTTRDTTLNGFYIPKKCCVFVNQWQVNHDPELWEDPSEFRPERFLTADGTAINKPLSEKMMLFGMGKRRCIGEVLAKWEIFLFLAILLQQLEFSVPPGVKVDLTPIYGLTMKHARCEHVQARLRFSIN
Particulars: bti-tn-5b1-4.

For data set [4], the target named is Voltage-gated inwardly rectifying potassium channel KCNH2 (Homo sapiens, UniProt Q12809). Particulars: hek293. Also: in other assays of this panel Not Active means under 50% inhibition at 10 µM.
Chain of Voltage-gated inwardly rectifying potassium channel KCNH2 (Q12809 whole entry): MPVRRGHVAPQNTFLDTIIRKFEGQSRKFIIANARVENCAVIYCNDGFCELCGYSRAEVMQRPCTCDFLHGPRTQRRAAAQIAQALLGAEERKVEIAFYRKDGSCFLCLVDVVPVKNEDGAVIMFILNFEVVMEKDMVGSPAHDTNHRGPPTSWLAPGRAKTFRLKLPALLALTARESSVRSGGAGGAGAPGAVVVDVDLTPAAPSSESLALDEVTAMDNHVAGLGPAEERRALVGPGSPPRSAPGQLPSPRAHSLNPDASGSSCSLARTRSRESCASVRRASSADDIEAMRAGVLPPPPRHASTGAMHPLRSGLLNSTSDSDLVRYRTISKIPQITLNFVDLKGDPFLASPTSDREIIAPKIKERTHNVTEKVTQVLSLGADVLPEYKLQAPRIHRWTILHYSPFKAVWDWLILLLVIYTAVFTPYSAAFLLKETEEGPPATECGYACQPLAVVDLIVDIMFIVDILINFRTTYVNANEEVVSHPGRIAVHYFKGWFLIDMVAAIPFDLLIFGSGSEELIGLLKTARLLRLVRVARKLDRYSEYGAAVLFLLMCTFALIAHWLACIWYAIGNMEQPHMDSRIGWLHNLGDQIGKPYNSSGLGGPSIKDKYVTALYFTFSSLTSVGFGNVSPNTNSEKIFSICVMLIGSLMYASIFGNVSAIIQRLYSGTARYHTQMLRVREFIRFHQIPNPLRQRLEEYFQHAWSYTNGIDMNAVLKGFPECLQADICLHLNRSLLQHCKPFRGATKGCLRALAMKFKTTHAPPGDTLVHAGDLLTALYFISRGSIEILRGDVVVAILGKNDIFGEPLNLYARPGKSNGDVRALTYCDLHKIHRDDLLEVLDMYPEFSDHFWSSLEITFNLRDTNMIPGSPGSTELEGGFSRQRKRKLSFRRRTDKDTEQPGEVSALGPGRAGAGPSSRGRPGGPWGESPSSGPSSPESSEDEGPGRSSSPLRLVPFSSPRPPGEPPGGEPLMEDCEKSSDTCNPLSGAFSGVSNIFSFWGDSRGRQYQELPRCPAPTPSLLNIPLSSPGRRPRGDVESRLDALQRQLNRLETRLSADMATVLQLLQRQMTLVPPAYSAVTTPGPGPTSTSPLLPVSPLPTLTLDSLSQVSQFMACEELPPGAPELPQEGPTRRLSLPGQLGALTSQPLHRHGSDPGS

Chain of Mitogen-activated protein kinase 3 (P27361 whole entry): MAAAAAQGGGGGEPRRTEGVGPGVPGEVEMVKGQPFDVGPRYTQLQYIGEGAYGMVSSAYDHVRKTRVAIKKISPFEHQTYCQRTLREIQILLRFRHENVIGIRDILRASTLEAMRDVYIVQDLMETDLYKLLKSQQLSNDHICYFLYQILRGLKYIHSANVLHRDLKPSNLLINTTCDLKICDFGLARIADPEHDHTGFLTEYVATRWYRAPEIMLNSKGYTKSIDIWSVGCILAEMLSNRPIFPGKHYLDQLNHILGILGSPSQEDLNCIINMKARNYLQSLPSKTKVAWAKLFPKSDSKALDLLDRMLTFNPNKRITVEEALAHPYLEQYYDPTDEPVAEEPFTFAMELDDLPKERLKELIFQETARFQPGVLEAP

By IC50 is commonly meant the midpoint of a concentration-inhibition curve. For the molecule `NCC(CC(=O)O)c1ccc(Cl)cc1` (centres undefined) [BACLOFEN], the concentration for half-maximal inhibition (IC50) entry (in data set [1]; against Cannabinoid receptor 1; at Cathepsin G; in data set [2]; in data set [3]; at Cytochrome P450 1A2) was “Not Active” each time. The half-inhibitory concentration (IC50) entry in data set [4] is “Not Active”. Further, the Ki entry (at Cytochrome P450 1A2; in data set [4]) was “Not Active” each time.

For `O=C(O)c1ccccc1` [BENZOIC ACID], the IC50 entry (in data set [1]; against Cannabinoid receptor 1; on Cathepsin G; in data set [2]; in data set [3]; at Cytochrome P450 1A2) was “Not Active” each time. Further, in data set [4], the half-inhibitory concentration (IC50) entry is reported as “Not Active”. Besides, the Ki entry (at Cytochrome P450 1A2; in data set [4]) was “Not Active” throughout.

Take `c1ccc2sc(SSc3nc4ccccc4s3)nc2c1` [BENZOTHIAZYL DISULFIDE]: the IC50 result (in data set [1]; against Cannabinoid receptor 1; on Cathepsin G; in data set [2]; in data set [3]; on Cytochrome P450 1A2) was “Not Active” each time. Also, in data set [4], the IC50 result is “Not Active”. Further, the Ki entry (at Cytochrome P450 1A2; in data set [4]) was “Not Active” in each case.

Regarding `OC[C@H]1O[C@@H]2O[C@H]3[C@H](O)[C@@H](O)[C@@H](O[C@H]4[C@H](O)[C@@H](O)[C@@H](O[C@H]5[C@H](O)[C@@H](O)[C@@H](O[C@H]6[C@H](O)[C@@H](O)[C@@H](O[C@H]7[C@H](O)[C@@H](O)[C@@H](O[C@H]8[C@H](O)[C@@H](O)[C@@H](O[C@H]1[C@H](O)[C@H]2O)O[C@@H]8CO)O[C@@H]7CO)O[C@@H]6CO)O[C@@H]5CO)O[C@@H]4CO)O[C@@H]3CO` [BETADEX], the concentration for half-maximal inhibition (IC50) entry (in data set [1]; at Cannabinoid receptor 1; against Cathepsin G; in data set [2]; in data set [3]; against Cytochrome P450 1A2) was “Not Active” throughout. In data set [4], the IC50 result is given as “Not Active”. For the same molecule, the Ki result (at Cytochrome P450 1A2; in data set [4]) was “Not Active” throughout.

Consider `C[C@H]1C[C@H]2[C@@H]3CCC4=CC(=O)C=C[C@]4(C)[C@@]3(F)[C@@H](O)C[C@]2(C)[C@@]1(O)C(=O)CO` [BETAMETHASONE], for which the IC50 entry (in data set [1]; on Cannabinoid receptor 1; against Cathepsin G; in data set [2]; in data set [3]; at Cytochrome P450 1A2) was “Not Active” in each case. In data set [4], the 50% inhibitory concentration (IC50) entry was “Not Active”. Moreover, the Ki entry (at Cytochrome P450 1A2; in data set [4]) was “Not Active” each time.

On to `CC(C)(c1ccc(O)cc1)c1ccc(O)cc1` [BISPHENOL A], for which the half-inhibitory concentration (IC50) entry (in data set [1]; at Cannabinoid receptor 1; on Cathepsin G; in data set [2]; in data set [3]; on Cytochrome P450 1A2) was “Not Active” throughout. Besides, the IC50 entry in data set [4] was “Not Active”. For the same molecule, the Ki result (at Cytochrome P450 1A2; in data set [4]) was “Not Active” each time.

As to `Cc1c(N)nc([C@H](CC(N)=O)NC[C@H](N)C(N)=O)nc1C(=O)N[C@H](C(=O)N[C@H](C)[C@@H](O)[C@H](C)C(=O)N[C@H](C(=O)NCCc1nc(-c2nc(C(=O)NCCC[S+](C)C)cs2)cs1)[C@@H](C)O)[C@@H](O[C@@H]1O[C@@H](CO)[C@@H](O)[C@H](O)[C@@H]1O[C@H]1O[C@H](CO)[C@@H](O)[C@H](OC(N)=O)[C@@H]1O)c1c[nH]cn1.[Br-]` [BLEOMYCIN A2], the IC50 entry (in data set [1]; at Cannabinoid receptor 1; on Cathepsin G; in data set [2]; in data set [3]; on Cytochrome P450 1A2) was “Not Active” throughout. In addition, the half-inhibitory concentration (IC50) result in data set [4] was “Not Active”. The Ki result (at Cytochrome P450 1A2; in data set [4]) was “Not Active” in each case.

Regarding `CC12CCC(CC1=O)C2(C)C` (centres undefined) [CAMPHOR], the concentration for half-maximal inhibition (IC50) result (in data set [1]; against Cannabinoid receptor 1; at Cathepsin G; in data set [2]; in data set [3]; against Cytochrome P450 1A2) was “Not Active” in each case. Besides, the 50% inhibitory concentration (IC50) result in data set [4] is given as “Not Active”. Moreover, the Ki entry (on Cytochrome P450 1A2; in data set [4]) was “Not Active” each time.

`C[N+](C)(C)CCOC(N)=O.[Cl-]` [CARBACHOL]: the 50% inhibitory concentration (IC50) entry (in data set [1]; against Cannabinoid receptor 1; at Cathepsin G; in data set [2]; in data set [3]; against Cytochrome P450 1A2) was “Not Active” in each case. The half-inhibitory concentration (IC50) result in data set [4] was “Not Active”. In addition, the Ki entry (at Cytochrome P450 1A2; in data set [4]) was “Not Active” each time.

As to `CCCCCCNC(=O)n1cc(F)c(=O)[nH]c1=O` [CARMOFUR], the IC50 result in data set [1] was “Not Active”; at Cannabinoid receptor 1, “Not Active”; against Cathepsin G, “Not Active”; in data set [2] (read-out: IC50), 6.12 µM; in data set [3], “Not Active”; on Cytochrome P450 1A2, “Not Active”. For the same molecule, in data set [4], the IC50 entry is given as “Not Active”. Also, the Ki result (on Cytochrome P450 1A2; in data set [4]) was “Not Active” in each case.

Turning to `Cl.NC[C@H]1CC[C@H](C(=O)Oc2ccc(CCC(=O)O)cc2)CC1` [CETRAXATE HYDROCHLORIDE], the IC50 entry (in data set [1]; against Cannabinoid receptor 1; on Cathepsin G; in data set [2]; in data set [3]; on Cytochrome P450 1A2) was “Not Active” each time. Besides, in data set [4], the IC50 result is “Not Active”. Further, the Ki result (on Cytochrome P450 1A2; in data set [4]) was “Not Active” each time.

In the case of `CC1(COc2ccc(CC3SC(=O)NC3=O)cc2)CCCCC1` (centres undefined) [CIGLITAZONE], the half-inhibitory concentration (IC50) entry (in data set [1]; on Cannabinoid receptor 1; at Cathepsin G; in data set [2]; in data set [3]; against Cytochrome P450 1A2) was “Not Active” throughout. In data set [4], the IC50 result is “Not Active”. The Ki entry (at Cytochrome P450 1A2; in data set [4]) was “Not Active” in each case.

For `CC(C)Cc1ccc([C@H](C)C(=O)O)cc1` [DEXIBUPROFEN], the IC50 entry (in data set [1]; on Cannabinoid receptor 1; against Cathepsin G; in data set [2]; in data set [3]; on Cytochrome P450 1A2) was “Not Active” each time. Besides, in data set [4], the IC50 result was “Not Active”. Besides, the Ki entry (at Cytochrome P450 1A2; in data set [4]) was “Not Active” each time.

In the case of `O=c1[nH]cnc2c1ncn2[C@H]1CC[C@@H](CO)O1` [DIDANOSINE], the half-inhibitory concentration (IC50) result (in data set [1]; on Cannabinoid receptor 1; against Cathepsin G; in data set [2]; in data set [3]; at Cytochrome P450 1A2) was “Not Active” in each case. In data set [4], the IC50 entry is listed as “Not Active”. Besides, the Ki entry (on Cytochrome P450 1A2; in data set [4]) was “Not Active” each time.

For the molecule `ClC1=C(Cl)[C@]2(Cl)[C@@H]3[C@@H]4C[C@@H]([C@H]5O[C@@H]45)[C@@H]3[C@@]1(Cl)C2(Cl)Cl` [DIELDRIN], the IC50 result (in data set [1]; at Cannabinoid receptor 1; on Cathepsin G; in data set [2]; in data set [3]; at Cytochrome P450 1A2) was “Not Active” in each case. Besides, in data set [4], the IC50 result is given as “Not Active”. Besides, the Ki result (at Cytochrome P450 1A2; in data set [4]) was “Not Active” throughout.

As for `CCN1CCN(c2cc3c(cc2F)c(=O)c(C(=O)O)cn3C2CC2)CC1` [ENROFLOXACIN], the IC50 entry (in data set [1]; against Cannabinoid receptor 1; against Cathepsin G; in data set [2]; in data set [3]; against Cytochrome P450 1A2) was “Not Active” throughout. Further, the half-maximal inhibitory concentration (IC50) entry in data set [4] is “Not Active”. In addition, the Ki entry (on Cytochrome P450 1A2; in data set [4]) was “Not Active” in each case.
